Laboratory results taken from US10626095B2, “Cyanotriazole compounds” (OTSUKA PHARMACEUTICAL CO., LTD., priority 2013, dated 2020).

Tested on: NaCT-CHO (CHO cells stably expressing human NaCT)
Test: Assay of the citric acid cycle activation ([1,5-14C]-citric acid, diffusion of [14C]-CO2)
Assay type: cell-based
Conditions: 1 hour incubation at 37° C. with [1,5-14C]-citric acid
Description: Assay of the Citric Acid Cycle Activation
(1) Construction of the Human NaCT Expression Vector pME-NaCT
The human NaCT (also called SLC13A5 or NAC2; GenBank accession No. NM_177550) cDNA was inserted into the EcoRI-NotI site of the mammalian expression vector pME18S (GenBank accession No. AB009864) and purified by Qiagen Plasmid Maxi Kit (Qiagen).
(2) Establishment of NaCT Stably Expressed CHO Cells
The pME-NaCT vector and the pcDNA™3.1 vector containing the neomycin resistance gene (Life Technologies) were co-transfected into CHO-K1 cells (ATCC) by Lipofectaimine 2000 reagent (Life Technologies). The next day the cells were subcultured in Nutrient Mixture F-12 Ham (Sigma-Aldrich) with 10% FBS (Biological Industries), and Geneticin (Life Technologies) was added (final concentration 350 μg/mL) in the following day. CHO cell clones stably expressing NaCT were given by neomycin resistant cell screening and limiting dilution method. Established cell lines (named NaCT-CHO) were also maintained in culture medium (Nutrient Mixture F-12 Ham) with 10% FBS and 350 μg/mL Geneticin. For control cells (named pME-CHO) preparation, the naive pME18S were also transfected instead of pME-NaCT into CHO-K1 cells.
(3) Assay of the Citric Acid Cycle Activation
NaCT-CHO and pME-CHO were plated at 20,000 cells/well into white CulturPlate™-96 (PerkinElmer) two days before the assay. Prior to assay incubation, the cultured plates were washed twice with washing buffer, 10 mM HEPES-Tris(pH7.4) containing 140 mM choline chloride, 2 mM KCl, 1 mM CaCl2, 1 mM MgCl2. The compounds to be tested were dissolved and diluted in DMSO (Wako Pure Chemical industries) to 1,000 times of a final concentration, and further diluted to two times as high as the final concentration in assay buffer, 10 mM HEPES-Tris(pH7.4) containing 140 mM NaCl, 2 mM KCl, 1 mM CaCl2, 1 mM MgCl2. The range of final concentrations was properly determined based on the test compounds activity. Each 25 μL compound solution was added to well and subsequently 25 μL radio-labeled substrate solution containing 0.4 mM (0.4 MBq/mL) [1,5-^14C]-citric acid (PerkinElmer) in the assay buffer was added. After 1 hour incubation at 37° C., the reaction mixture was discarded and washed three times with pre-chilled washing buffer and then 0.1 mL MicroScint 20 (PerkinElmer) was added to well. The plate was sealed with TopSeal-A (PerkinElmer) and the radioactivity was measured using a TopCount (PerkinElmer). Non-specific activity (NS cpm) and total radio activity (Total cpm) were determined by counting of pME-CHO plated wells and NaCT-CHO plated wells without compounds, respectively. Diffusion of [^14C]—CO2 was able to be estimated from residual radioactivity (R cpm) by an equation (Total−R)/(Total−NS)×100(%). The difference of Total and R was disappeared in the presence of 0.1 μM antimycin A. EC50 values were calculated by regression analysis using SAS Statistical Analysis System (SAS institute Japan Ltd. Release 9.1).

With N#Cc1[nH]nnc1-c1cc(Cl)cc(N2CCC(C(F)(F)F)CC2)c1 [Example 24, 5-[3-chloro-5-(4-trifluoromethyl-piperidin-1-yl)-phenyl]-3H-[1,2,3]triazole-4-carbonitrile] the EC50 was 480 nM.

With N#Cc1[nH]nnc1-c1cc(Cl)cc(-c2csc3ccccc23)c1 [Example 25, 5-(3-(benzo[b]thiophen-3-yl)-5-chloro-phenyl)-3H-[1,2,3]triazole-4-carbonitrile] the EC50 was 540 nM.

Work on N#Cc1[nH]nnc1-c1ccc(F)c(-c2cc3ccccc3o2)c1 [Example 26, 5-(3-(benzofuran-2-yl)-4-fluoro-phenyl)-3H-[1,2,3]triazole-4-carbonitrile] yielded an EC50 of 690 nM.

With N#Cc1[nH]nnc1-c1cccc(-c2nc3cc(F)ccc3o2)c1 [Example 27, 5-[3-(5-fluoro-benzoxazol-2-yl)-phenyl]-3H-[1,2,3]triazole-4-carbonitrile] the EC50 was 890 nM.

N#Cc1[nH]nnc1-c1cc(F)cc(-c2cccc(C(F)(F)F)c2)c1 [Example 28, 5-(5-fluoro-3′-trifluoromethyl-biphenyl-3-yl)-3H-[1,2,3]triazole-4-carbonitrile] gave an EC50 of 370 nM.

N#Cc1[nH]nnc1-c1cc(Cl)cc(-c2ccc3c(c2)OC(F)(F)O3)c1 [Example 30, 5-[3-chloro-5-(2,2-difluoro-benzo[1,3]dioxol-5-yl)-phenyl]-3H-[1,2,3]triazole-4-carbonitrile] gave an EC50 of 640 nM.

Cc1cc(-c2cc(F)cc(C(F)(F)F)c2)cc(-c2nn[nH]c2C#N)c1 [Example 31, 5-(5′-fluoro-5-methyl-3′-trifluoromethyl-biphenyl-3-yl)-3H-[1,2,3]triazole-4-carbonitrile] was tested, and the EC50 was 380 nM.

Compound COc1ccc(-c2nn[nH]c2C#N)cc1-c1ccc(F)c(F)c1 [Example 32, 5-(3′,4′-difluoro-6-methoxy-biphenyl-3-yl)-3H-[1,2,3]triazole-4-carbonitrile] has an EC50 of 740 nM.

With CCOCc1cc(-c2ccc(F)cc2)cc(-c2nn[nH]c2C#N)c1 [Example 33, 5-(5-ethoxymethyl-4′-fluoro-biphenyl-3-yl)-3H-[1,2,3]triazole-4-carbonitrile] the EC50 was 270 nM.

N#Cc1[nH]nnc1-c1cc(Cc2ccc(F)cc2)cc(OC(F)(F)F)c1 [Example 34, 5-[3-(4-fluoro-benzyl)-5-trifluoromethoxy-phenyl]-3H-[1,2,3]triazole-4-carbonitrile] showed an EC50 of 460 nM.

Compound N#Cc1[nH]nnc1-c1cc(Cl)cc(Cc2cc(C(F)(F)F)ccc2C(F)(F)F)c1 [Example 35, 5-[3-(2,5-bis-trifluoromethyl-benzyl)-5-chloro-phenyl]-3H-[1,2,3]triazole-4-carbonitrile] has an EC50 of 340 nM.

With N#Cc1[nH]nnc1-c1cccc(CN2CCc3ccccc32)c1 [Example 36, 5-[3-(2,3-dihydro-indol-1-ylmethyl)-phenyl]-3H-[1,2,3]triazole-4-carbonitrile] the EC50 was 450 nM.

Work on N#Cc1[nH]nnc1-c1cc(Oc2ccccc2)cc(C(F)(F)F)c1 [Example 37, 5-(3-phenoxy-5-trifluoromethyl-phenyl)-3H-[1,2,3]triazole-4-carbonitrile] yielded an EC50 of 120 nM.

In the case of N#Cc1[nH]nnc1-c1cccc(Sc2ccc(Cl)cc2)c1 [Example 38, 5-[3-(4-chloro-phenylsulfanyl)-phenyl]-3H-[1,2,3]triazole-4-carbonitrile], the EC50 is reported as 420 nM.

Work on N#Cc1[nH]nnc1-c1cc(CCc2cccc(C(F)(F)F)n2)cc(C(F)(F)F)c1 [Example 39, 5-{3-trifluoromethyl-5-[2-(6-trifluoromethyl-pyridin-2-yl)-ethyl]-phenyl}-3H-[1,2,3]triazole-4-carbonitrile] yielded an EC50 of 710 nM.

With N#Cc1[nH]nnc1-c1cccc(CCc2ccc(F)cc2F)c1 [Example 40, 5-{3-[2-(2,4-difluoro-phenyl)-ethyl]-phenyl}-3H-[1,2,3]triazole-4-carbonitrile] the EC50 was 550 nM.

Compound N#Cc1[nH]nnc1-c1cccc(/C=C/c2cccc(C(F)(F)F)c2)c1Cl [Example 42, 5-{2-chloro-3-[(E)-2-(3-trifluoromethyl-phenyl)-vinyl]-phenyl}-3H-[1,2,3]triazole-4-carbonitrile] has an EC50 of 590 nM.

With CCOc1c(/C=C/c2cccc(C(F)(F)F)c2)cccc1-c1nn[nH]c1C#N [Example 43, 5-{2-ethoxy-3-[(E)-2-(3-trifluoromethyl-phenyl)-vinyl]-phenyl}-3H-[1,2,3]triazole-4-carbonitrile] the EC50 was 670 nM.

In the case of CCOc1ccc(/C=C/c2cccc(-c3nn[nH]c3C#N)c2)cc1 [Example 44, 5-{3-[(E)-2-(4-ethoxy-phenyl)-vinyl]-phenyl}-3H-[1,2,3]triazole-4-carbonitrile], the EC50 is reported as 690 nM.

N#Cc1ccc(-c2nn[nH]c2C#N)cc1/C=C/c1cccc(C(F)(F)F)c1 [Example 45, 5-{4-cyano-3-[(E)-2-(3-trifluoromethyl-phenyl)-vinyl]-phenyl}-3H-[1,2,3]triazole-4-carbonitrile] gave an EC50 of 910 nM.

Compound N#Cc1[nH]nnc1-c1ccc(C(F)(F)F)c(/C=C/c2cccc(C(F)(F)F)c2)c1 [Example 46, 5-{4-trifluoromethyl-3-[(E)-2-(3-trifluoromethyl-phenyl)-vinyl]-phenyl}-3H-[1,2,3]triazole-4-carbonitrile] has an EC50 of 980 nM.

For N#Cc1[nH]nnc1-c1cccc(/C=C/c2ccc(C(F)(F)F)cn2)c1 [Example 48, 5-{3-[(E)-2-(5-trifluoromethyl-pyridin-2-yl)-vinyl]-phenyl}-3H-[1,2,3]triazole-4-carbonitrile], the EC50 was 430 nM.

N#Cc1[nH]nnc1-c1cccc(/C=C\c2cc(C(F)(F)F)cc(C(F)(F)F)c2)c1 [Example 53, 5-{3-[(Z)-2-(3,5-bis-trifluoromethyl-phenyl)-vinyl]-phenyl}-3H-[1,2,3]triazole-4-carbonitrile] gave an EC50 of 480 nM.

For CN(Cc1cccc(-c2nn[nH]c2C#N)c1)c1ccc(F)cc1 [Example 54, 5-(3-{[N-(4-fluoro-phenyl)-N-methyl-amino]-methyl}-phenyl)-3H-[1,2,3]triazole-4-carbonitrile], the EC50 was 430 nM.

N#Cc1[nH]nnc1-c1cccc(COc2ccc(C(F)(F)F)cn2)c1 [Example 56, 5-[3-(5-trifluoromethyl-pyridin-2-yloxymethyl)-phenyl]-3H-[1,2,3]triazole-4-carbonitrile] was tested, and the EC50 was 730 nM.

In the case of N#Cc1[nH]nnc1-c1cccc(COc2cc(C(F)(F)F)cc(C(F)(F)F)c2)c1 [Example 57, 5-[3-(3,5-bis-trifluoromethyl-phenoxymethyl)-phenyl]-3H-[1,2,3]triazole-4-carbonitrile], the EC50 is reported as 480 nM.

In the case of CN(Cc1cc(C(F)(F)F)cc(C(F)(F)F)c1)c1cccc(-c2nn[nH]c2C#N)c1 [Example 58, 5-{3-[N-(3,5-bis-trifluoromethyl-benzyl)-N-methyl-amino]-phenyl}-3H-[1,2,3]triazole-4-carbonitrile], the EC50 is reported as 720 nM.

Compound N#Cc1[nH]nnc1-c1cccc(OCc2cc3ccccc3o2)c1 [Example 59, 5-[3-(benzofuran-2-ylmethoxy)-phenyl]-3H-[1,2,3]triazole-4-carbonitrile] has an EC50 of 500 nM.

With COc1ccccc1COc1cc(-c2nn[nH]c2C#N)cc(C(F)(F)F)c1 [Example 61, 5-[3-(2-methoxy-benzyloxy)-5-trifluoromethyl-phenyl]-3H-[1,2,3]triazole-4-carbonitrile] the EC50 was 440 nM.

With COc1cc(OCc2cc(C(F)(F)F)ccc2C(F)(F)F)cc(-c2nn[nH]c2C#N)c1 [Example 62, 5-[3-(2,5-bis-trifluoromethyl-benzyloxy)-5-methoxy-phenyl]-3H-[1,2,3]triazole-4-carbonitrile] the EC50 was 600 nM.
